In one assay the test system is HeLa cells. Put plainly: Quantitative phosphoproteomic analysis. The format is cell-based, human. The following applies: 30 min, 100 μM (LIMKi3, TH470) or 1 mM (TH257) as printed; for Significantly regulated phosphosites: p<0.01.
The subject of assay [1] is more than 200 full-length kinases in Hela cell lysate. Put plainly: Kinobead pulldown assay in cellular lysate. The format is binding, human. The following applies: dose–response 30 μM to 1 nM.
Another assay deals with 468 kinases. Put plainly: KINOMEscan scanMAX kinase selectivity panel. The format is binding, human.

From paper PMC9675044 (Journal of medicinal chemistry, 2022) come the findings set out here.

Regarding `CC(C)C(=O)Nc1ncc(-c2cc(C(F)F)nn2-c2c(Cl)cccc2Cl)s1` [Compound 1, reference compound], in the assay with HeLa cells, the Downregulated phosphosites was 173 sites, the Upregulated phosphosites was 189 sites and the Significantly regulated phosphosites was 362 sites. For the same compound, in assay [1], the “Hits identified in kinobead assay” value was “No other hits except LIMK1 and LIMK2 were identified”.
In the assay with HeLa cells, `CC(C)C(=O)Nc1ncc(C(=O)NCCN(Cc2ccccc2)C(=O)c2ccc(S(=O)(=O)Nc3ccccc3)cc2)s1` [Compound 48, N-benzyl-N-(2-{[2-(2-methylpropanamido)-1,3-thiazol-5-yl]formamido}ethyl)-4-(phenylsulfamoyl)benzamide] returned a Downregulated phosphosites of 193 sites, an Upregulated phosphosites of 146 sites and a Significantly regulated phosphosites of 339 sites. Besides, the “Hits identified in kinobead assay” value in assay [1] was “No other hits except LIMK1 and LIMK2 were identified”.
Turning to `O=C(NCc1ccccc1)c1ccc(S(=O)(=O)NCc2ccccc2)cc1` [Compound 26, N-benzyl-4-(benzylsulfamoyl)benzamide], the “Hits identified in kinobead assay” value in assay [1] is “No other hits except LIMK1 and LIMK2 were identified”. Besides, the “Interaction with other kinases in KINOMEscan panel” value in the assay on 468 kinases (screened at 1 μM, 468 kinases) is given as “no interacting kinase”.
Take `O=C(c1ccc(S(=O)(=O)Nc2ccccc2)cc1)N(Cc1ccccc1)Cc1cn(Cc2ccccc2)nn1` [Compound 33, N-benzyl-N-[(1-benzyl-1H-1,2,3-triazol-4-yl)methyl]-4-(phenylsulfamoyl)benzamide]: the “Additional off-targets identified besides LIMK1/2” value in the assay with 468 kinases (selectivity profiling) is given as “four”.
